Experimental findings from patent US20250223296A1, “HYDROXYMETHYL AZABICYCLO[2.2.1]HEPTANES AND MEDICAL USES THEREOF” (ATROGI AB, priority 2022, published 2025) are described below.

The test system of experiment [1] is L6-myotubes. As to the kind of experiment: Measurement of intracellular cAMP levels in differentiated L6 cells. It is filed as cell-based. Conditions: Rattus norvegicus, L6, 0.25 h, compound at 10 µM (1×10^−5 M), 15 min, vs isoproterenol at 10 µM, read-out: Biological example 2: intracellular cAMP levels, activity compared to that of isoproterenol. As to the method:
L6-myoblasts were grown in Dulbecco's Modified Eagle's Medium (DMEM) containing 1 g/L glucose supplemented with 10% fetal bovine serum, 2 mM L-Glutamine, 50 U/ml penicillin, 50 μg/mL streptomycin and 10 mM HEPES. Cells were plated at 1×10^5 cells per mL in 24-well plates. After reaching 90% confluence the cells were grown in medium containing 2% FBS for 7 days where upon cells differentiated into myotubes. Differentiated cells were serum-starved overnight and stimulated with an agonist, final concentration 1×10^−5 M, for 15 min in stimulation buffer (HBSS supplemented with 1% BSA, 5 mM HEPES and 1 mM IBMX, pH 7.4). The medium was aspirated and 100 μL of 95% EtOH was added to each well of the 24-well plate and cells were kept at −20° C. overnight. The EtOH was allowed to evaporate and 500 μL of lysis buffer (1% BSA, 5 mM HEPES and 0.3% Tween-20, pH 7.4) was added to each well. The plate was kept at −80° C. for 30 min and then at −20° C. until the day of detection when the samples were thawed. Intracellular cAMP levels were detected using an alpha screen CAMP kit (6760635D from Perkin Elmer). The activity for each compound is compared to that of isoproterenol.
(In general: cAMP levels reflect the balance of adenylyl cyclase and phosphodiesterase activity.)

Experiment [2] relates to L6-myotubes. As to the kind of experiment: Glucose uptake (3H-2-deoxyglucose) in differentiated L6-myotubes. It is filed as cell-based. As to conditions: compound at 10 µM (1×10^−5 M) vs isoproterenol at 10 µM, read-out: Biological example 1: glucose uptake, activity compared to that of isoproterenol. As to the method:
L6-myoblasts were grown in Dulbecco's Modified Eagle's Medium (DMEM) containing 1 g/L glucose supplemented with 10% fetal bovine serum, 2 mM L-Glutamine, 50 U/ml penicillin, 50 μg/mL streptomycin and 10 mM HEPES. Cells were plated at 1×10^5 cells per mL in 24-well plates. After reaching 90% confluence the cells were grown in medium containing 2% FBS for 7 days where upon cells differentiated into myotubes. Differentiated L6-myotubes were serum-starved overnight in medium containing 0.5% fatty-acid free BSA and stimulated with an agonist, with a final concentration of 1×10^−5 M. After 1 h 40 min the cells were washed with warm glucose free medium or PBS twice and another portion of agonist was added to the glucose free medium. After 20 min the cells were exposed to 50 nM ^3H-2-deoxyglucose for another 10 min before washed in ice cold glucose free medium or PBS three times and lysed in 400 μL/well 0.2 M NaOH for 1 h at 60° C. The cell lysate was mixed with 4 mL scintillation buffer (Emulsifier Safe, Perkin Elmer) and the radioactivity was detected in a β-counter (Tri-Carb 4810TR, Perkin Elmer). The activity for each compound is compared to that of isoproterenol.

Where a name gives a salt, the structure may show the parent alone.

Regarding `CS(=O)(=O)N(Cc1ccccc1)c1cccc(CC23CCC([C@@H](O)c4cccc(F)c4)(CC2)N3)c1` [Example 24, N-Benzyl-N-(3-((4-((S)-(3-fluorophenyl)(hydroxy)methyl)-7-aza-bicyclo[2.2.1]heptan-1-yl)methyl)phenyl)methanesulfonamide], the figures for the Emax at 10 µM in the experiment with L6-myotubes [1] and in the experiment on L6-myotubes [2] were < 25% and 50 to 75%, respectively.
`CS(=O)(=O)Nc1ccc(CC23CCC([C@H](O)c4cccc(F)c4)(CC2)N3)cc1` [Example 25, N-(4-((4-((R)-(3-Fluorophenyl)(hydroxy)methyl)-7-azabicyclo[2.2.1]-heptan-1-yl)methyl)phenyl)methanesulfonamide]: the Emax at 10 µM was < 25% with L6-myotubes [1] and 50 to 75% in the experiment with L6-myotubes [2].
On the same counts, the results for `CS(=O)(=O)Nc1ccc(CC23CCC([C@@H](O)c4cccc(F)c4)(CC2)N3)cc1` [Example 26, N-(4-((4-((S)-(3-Fluorophenyl)(hydroxy)methyl)-7-azabicyclo[2.2.1]-heptan-1-yl)methyl)phenyl)methanesulfonamide] are < 25% and 50 to 75%.
In the case of `CS(=O)(=O)Nc1cccc(CC23CCC([C@H](O)c4cccc(F)c4)(CC2)N3)c1` [Example 27, N-(3-((4-((R)-(3-Fluorophenyl)(hydroxy)methyl)-7-azabicyclo-[2.2.1]heptan-1-yl)methyl)phenyl)methanesulfonamide], the Emax at 10 µM was < 25% with L6-myotubes [1] and 50 to 75% in the experiment with L6-myotubes [2].
`CS(=O)(=O)Nc1cccc(CC23CCC([C@@H](O)c4cccc(F)c4)(CC2)N3)c1` [Example 28, N-(3-((4-((S)-(3-Fluorophenyl)(hydroxy)methyl)-7-azabicyclo[2.2.1]-heptan-1-yl)methyl)phenyl)methanesulfonamide]: the Emax at 10 µM with L6-myotubes [1] is < 25%; in the experiment with L6-myotubes [2] it was 50 to 75%.
The like results for `O[C@H](c1cncc(F)c1)C12CCC(C/C=C/c3ccccc3)(CC1)N2` [Example 29, (R)-(4-Cinnamyl-7-azabicyclo[2.2.1]heptan-1-yl)(5-fluoropyridin-3-yl)-methanol] were, in that order, < 25% and > 75%.
On the same counts, the results for `O[C@@H](c1cncc(F)c1)C12CCC(C/C=C/c3ccccc3)(CC1)N2` [Example 30, (S)-(4-Cinnamyl-7-azabicyclo[2.2.1]heptan-1-yl)(5-fluoropyridin-3-yl)-methanol] are < 25% and 25 to 50%.
On the same counts, the results for `O[C@H](c1cccc(F)c1)C12CCC(C/C=C/c3ccccc3)(CC1)N2` [Example 31, (R)-(4-Cinnamyl-7-azabicyclo[2.2.1]heptan-1-yl)(3-fluorophenyl)methanol] are < 25% and > 75%.
As for `O[C@@H](c1cccc(F)c1)C12CCC(C/C=C/c3ccccc3)(CC1)N2` [Example 32, (S)-(4-Cinnamyl-7-azabicyclo[2.2.1]heptan-1-yl)(3-fluorophenyl)methanol], the Emax at 10 µM in the experiment with L6-myotubes [1] and in the experiment on L6-myotubes [2] was < 25% in each case.
Turning to `O[C@H](c1cncc(F)c1)C12CCC(CCCc3ccccc3)(CC1)N2` [Example 33, (R)-(5-Fluoropyridin-3-yl)(4-(3-phenylpropyl)-7-azabicyclo[2.2.1]heptan-1-yl)methanol hydrochloride], the Emax at 10 µM in the experiment on L6-myotubes [1] lay in the range of 25 to 50%; in the experiment on L6-myotubes [2], 50 to 75%.
In the case of `O[C@@H](c1cncc(F)c1)C12CCC(CCCc3ccccc3)(CC1)N2` [Example 34, (S)-(5-Fluoropyridin-3-yl)(4-(3-phenylpropyl)-7-azabicyclo[2.2.1]heptan-1-yl)methanol hydrochloride], the Emax at 10 µM was < 25% in the experiment with L6-myotubes [1] and 50 to 75% with L6-myotubes [2].
Regarding `O[C@H](c1cccc(F)c1)C12CCC(CCCc3ccccc3)(CC1)N2` [Example 35, (R)-(3-Fluorophenyl)(4-(3-phenylpropyl)-7-azabicyclo[2.2.1]heptan-1-yl)methanol hydrochloride], the Emax at 10 µM is 25 to 50% in the experiment on L6-myotubes [1] and > 75% with L6-myotubes [2].
The like results for `O[C@@H](c1cccc(F)c1)C12CCC(CCCc3ccccc3)(CC1)N2` [Example 36, (S)-(3-Fluorophenyl)(4-(3-phenylpropyl)-7-azabicyclo[2.2.1]heptan-1-yl)methanol hydrochloride] were, in that order, < 25% and 25 to 50%.
The like results for `O[C@H](c1cccc(F)c1)C12CCC(CCc3ccc(Cl)cc3)(CC1)N2` [Example 37, (R)-4-(4-Chlorophenethyl)-7-azabicyclo[2.2.1]heptan-1-yl)-(3-fluorophenyl)methanol acetate] were, in that order, < 25% and < 25%.
The like results for `O[C@@H](c1cccc(F)c1)C12CCC(CCc3ccc(Cl)cc3)(CC1)N2` [Example 38, (S)-(4-(4-Chlorophenethyl)-7-azabicyclo[2.2.1]heptan-1-yl)(3-fluoro-phenyl)methanol acetate] were, in that order, < 25% and < 25%.
In the case of `COc1ccc(CCC23CCC([C@H](O)c4cccc(F)c4)(CC2)N3)cc1` [Example 39, (R)-(3-Fluorophenyl)(4-(4-methoxyphenethyl)-7-azabicyclo[2.2.1]heptan-1-yl)methanol acetate], the Emax at 10 µM in the experiment on L6-myotubes [1] is < 25%; in the experiment with L6-myotubes [2] it was 50 to 75%.
Consider `COc1ccc(CCC23CCC([C@@H](O)c4cccc(F)c4)(CC2)N3)cc1` [Example 40, (S)-(3-Fluorophenyl)(4-(4-methoxyphenethyl)-7-azabicyclo[2.2.1]heptan-1-yl)methanol acetate], for which the Emax at 10 µM in the experiment with L6-myotubes [1] and with L6-myotubes [2] was < 25% each time.
In the case of `COc1ccc(CCC23CCC([C@H](O)c4cncc(F)c4)(CC2)N3)cc1` [Example 41, (R)-(5-Fluoropyridin-3-yl)(4-(4-methoxyphenethyl)-7-azabicyclo-[2.2.1]heptan-1-yl)methanol dihydrochloride], the Emax at 10 µM lay within 25 to 50% in the experiment with L6-myotubes [1] and 50 to 75% in the experiment on L6-myotubes [2].
The like results for `COc1ccc(CCC23CCC([C@@H](O)c4cncc(F)c4)(CC2)N3)cc1` [Example 42, (S)-(5-Fluoropyridin-3-yl)(4-(4-methoxyphenethyl)-7-azabicyclo-[2.2.1]heptan-1-yl)methanol dihydrochloride] were, in that order, < 25% and < 25%.
